Laboratory results published in patent US20100298141A1, “SUBSTITUTED PYRIDINE N-OXIDE HERBICIDES” (E. I. DU PONT DE NEMOURS AND COMPANY, priority 2007, published 2010).

Legend:
Assay in all cases: Test F preemergence test
Details in all cases: scale 0 to 100
common groundsel = format: in vivo, Senecio vulgaris
Method in brief: (§1)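 Compounds in a non-phytotoxic solvent formulation with surfactant were applied before emergence after sowing, or, for sugarcane, also postemergence. Evaluation was visual, against controls, after 14 to 21 greenhouse days.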

prickly sida = format: in vivo, Sida spinosa
Method in brief: as §1

southern sandbur = format: in vivo, Cenchrus echinatus
Method in brief: as §1

purple nutsedge = format: in vivo, Cyperus rotundus
Method in brief: as §1

Surinam grass = format: in vivo, Brachiaria decumbens
Method in brief: as §1

common ragweed = format: in vivo, Ambrosia elation
Method in brief: as §1

goosegrass = format: in vivo, Eleusine indica
Method in brief: as §1

bermudagrass = format: in vivo, Cynodon dactylon
Method in brief: as §1

common purslane = format: in vivo, Portulaca oleracea
Method in brief: as §1

naked crabgrass = format: in vivo, Digitaria nuda
Method in brief: as §1

guineagrass = format: in vivo, Panicum maximum
Method in brief: as §1

quackgrass = format: in vivo, Elytrigia repens
Method in brief: as §1

pitted morningglory = format: in vivo, Ipomoea lacunosa
Method in brief: as §1

kochia = format: in vivo, Kochia scoparia
Method in brief: as §1

Italian ryegrass = format: in vivo, Lolium multiflorum
Method in brief: as §1

large crabgrass = format: in vivo, Digitaria sanguinalis
Method in brief: as §1

johnsongrass = format: in vivo, Sorghum halepense
Method in brief: as §1

Structure (SMILES): CCn1nc(C(F)(F)F)c(CS(=O)(=O)c2cccc[n+]2[O-])c1OCC(F)(F)F [Compound 63]
- Plant response rating, Groundsel (common groundsel; 16 g ai/ha, preemergence): 0
- Groundsel plant response rating (common groundsel; 62 g ai/ha, Preemergence): 0
- Groundsel plant response rating (common groundsel; 125 g ai/ha, preemergence): 0
- Plant response rating, Groundsel (common groundsel; Preemergence, 31 g ai/ha): 0
- Plant response rating, Prickly Sida (prickly sida; 16 g ai/ha, preemergence): 20
- Prickly Sida plant response rating (prickly sida; 62 g ai/ha, Preemergence): 65
- Prickly Sida plant response rating (prickly sida; 125 g ai/ha, preemergence): 90
- Plant response rating, Prickly Sida (prickly sida; Preemergence, 31 g ai/ha): 65
- Plant response rating, Sandbur (southern sandbur; 16 g ai/ha, preemergence): 65
- Sandbur plant response rating (southern sandbur; 125 g ai/ha, preemergence): 100
- Plant response rating, Sandbur (southern sandbur; Preemergence, 62 g ai/ha): 100
- Plant response rating, Sandbur (southern sandbur; Preemergence, 31 g ai/ha): 100
- Plant response rating, Purple Nutsedge (purple nutsedge; 16 g ai/ha, preemergence): 0
- Purple Nutsedge plant response rating (purple nutsedge; 62 g ai/ha, Preemergence): 65
- Purple Nutsedge plant response rating (purple nutsedge; 125 g ai/ha, preemergence): 75
- Plant response rating, Purple Nutsedge (purple nutsedge; Preemergence, 31 g ai/ha): 15
- Plant response rating, Surinam Grass (Surinam grass; 16 g ai/ha, preemergence): 70
- Surinam Grass plant response rating (Surinam grass; 125 g ai/ha, preemergence): 100
- Plant response rating, Surinam Grass (Surinam grass; Preemergence, 62 g ai/ha): 100
- Plant response rating, Surinam Grass (Surinam grass; Preemergence, 31 g ai/ha): 80
- Plant response rating, Ragweed (common ragweed; 16 g ai/ha, preemergence): 0
- Ragweed plant response rating (common ragweed; 125 g ai/ha, preemergence): 100
- Plant response rating, Ragweed (common ragweed; Preemergence, 62 g ai/ha): 90
- Plant response rating, Ragweed (common ragweed; Preemergence, 31 g ai/ha): 40
- Plant response rating, Goosegrass (goosegrass; 16 g ai/ha, preemergence): 80
- Goosegrass plant response rating (goosegrass; 62 g ai/ha, Preemergence): 98
- Goosegrass plant response rating (goosegrass; 125 g ai/ha, preemergence): 100
- Plant response rating, Goosegrass (goosegrass; Preemergence, 31 g ai/ha): 90
- Plant response rating, Bermudagrass (bermudagrass; 16 g ai/ha, preemergence): 50
- Bermudagrass plant response rating (bermudagrass; 62 g ai/ha, Preemergence): 95
- Bermudagrass plant response rating (bermudagrass; 125 g ai/ha, preemergence): 100
- Plant response rating, Bermudagrass (bermudagrass; Preemergence, 31 g ai/ha): 80
- Plant response rating, Purslane (common purslane; 16 g ai/ha, preemergence): 0
- Purslane plant response rating (common purslane; 62 g ai/ha, Preemergence): 0
- Purslane plant response rating (common purslane; 125 g ai/ha, preemergence): 20
- Plant response rating, Purslane (common purslane; Preemergence, 31 g ai/ha): 0
- Plant response rating, Crabgrass, Naked (naked crabgrass; 16 g ai/ha, preemergence): 70
- Crabgrass, Naked plant response rating (naked crabgrass; 62 g ai/ha, Preemergence): 100
- Crabgrass, Naked plant response rating (naked crabgrass; 125 g ai/ha, preemergence): 100
- Plant response rating, Crabgrass, Naked (naked crabgrass; Preemergence, 31 g ai/ha): 70
- Plant response rating, Guineagrass (guineagrass; 16 g ai/ha, preemergence): 70
- Guineagrass plant response rating (guineagrass; 62 g ai/ha, Preemergence): 100
- Guineagrass plant response rating (guineagrass; 125 g ai/ha, preemergence): 100
- Plant response rating, Guineagrass (guineagrass; Preemergence, 31 g ai/ha): 95
- Plant response rating, Quackgrass (quackgrass; 16 g ai/ha, preemergence): 0
- Quackgrass plant response rating (quackgrass; 62 g ai/ha, Preemergence): 95
- Quackgrass plant response rating (quackgrass; 125 g ai/ha, preemergence): 100
- Plant response rating, Quackgrass (quackgrass; Preemergence, 31 g ai/ha): 65
- Plant response rating, Morningglory (pitted morningglory; 16 g ai/ha, preemergence): 0
- Morningglory plant response rating (pitted morningglory; 62 g ai/ha, Preemergence): 0
- Morningglory plant response rating (pitted morningglory; 125 g ai/ha, preemergence): 35
- Plant response rating, Morningglory (pitted morningglory; Preemergence, 31 g ai/ha): 0
- Plant response rating, Kochia (kochia; 16 g ai/ha, preemergence): 0
- Kochia plant response rating (kochia; 62 g ai/ha, Preemergence): 0
- Kochia plant response rating (kochia; 125 g ai/ha, preemergence): 100
- Plant response rating, Kochia (kochia; Preemergence, 31 g ai/ha): 0
- Plant response rating, Ryegrass, Italian (Italian ryegrass; 16 g ai/ha, preemergence): 0
- Ryegrass, Italian plant response rating (Italian ryegrass; 125 g ai/ha, preemergence): 100
- Plant response rating, Ryegrass, Italian (Italian ryegrass; Preemergence, 62 g ai/ha): 80
- Plant response rating, Ryegrass, Italian (Italian ryegrass; Preemergence, 31 g ai/ha): 60
- Plant response rating, Crabgrass, Large (large crabgrass; 16 g ai/ha, preemergence): 25
- Crabgrass, Large plant response rating (large crabgrass; 62 g ai/ha, Preemergence): 95
- Crabgrass, Large plant response rating (large crabgrass; 125 g ai/ha, preemergence): 100
- Plant response rating, Crabgrass, Large (large crabgrass; Preemergence, 31 g ai/ha): 90
- Plant response rating, Johnsongrass (johnsongrass; 16 g ai/ha, preemergence): 35
- Johnsongrass plant response rating (johnsongrass; 62 g ai/ha, Preemergence): 100
- Johnsongrass plant response rating (johnsongrass; 125 g ai/ha, preemergence): 100
- Plant response rating, Johnsongrass (johnsongrass; Preemergence, 31 g ai/ha): 80

Structure (SMILES): Cn1nc(C(F)(F)F)c(C[S+]([O-])c2cccc[n+]2[O-])c1OCC(F)(F)F (racemic) [Compound 28]
- Groundsel plant response rating (common groundsel; 62 g ai/ha, Preemergence): 100
- Groundsel plant response rating (common groundsel; 125 g ai/ha, preemergence): 100
- Plant response rating, Groundsel (common groundsel; Preemergence, 16 g ai/ha): 90
- Plant response rating, Groundsel (common groundsel; Preemergence, 31 g ai/ha): 100
- Prickly Sida plant response rating (prickly sida; 62 g ai/ha, Preemergence): 100
- Prickly Sida plant response rating (prickly sida; 125 g ai/ha, preemergence): 100
- Plant response rating, Prickly Sida (prickly sida; Preemergence, 16 g ai/ha): 15
- Plant response rating, Prickly Sida (prickly sida; Preemergence, 31 g ai/ha): 90
- Sandbur plant response rating (southern sandbur; 62 g ai/ha, Preemergence): 100
- Sandbur plant response rating (southern sandbur; 125 g ai/ha, preemergence): 100
- Plant response rating, Sandbur (southern sandbur; Preemergence, 31 g ai/ha): 90
- Purple Nutsedge plant response rating (purple nutsedge; 62 g ai/ha, Preemergence): 80
- Purple Nutsedge plant response rating (purple nutsedge; 125 g ai/ha, preemergence): 90
- Plant response rating, Purple Nutsedge (purple nutsedge; Preemergence, 16 g ai/ha): 0
- Plant response rating, Purple Nutsedge (purple nutsedge; Preemergence, 31 g ai/ha): 25
- Surinam Grass plant response rating (Surinam grass; 62 g ai/ha, Preemergence): 100
- Surinam Grass plant response rating (Surinam grass; 125 g ai/ha, preemergence): 100
- Plant response rating, Surinam Grass (Surinam grass; Preemergence, 31 g ai/ha): 90
- Ragweed plant response rating (common ragweed; 62 g ai/ha, Preemergence): 80
- Ragweed plant response rating (common ragweed; 125 g ai/ha, preemergence): 90
- Plant response rating, Ragweed (common ragweed; Preemergence, 16 g ai/ha): 20
- Plant response rating, Ragweed (common ragweed; Preemergence, 31 g ai/ha): 70
- Goosegrass plant response rating (goosegrass; 62 g ai/ha, Preemergence): 100
- Goosegrass plant response rating (goosegrass; 125 g ai/ha, preemergence): 100
- Plant response rating, Goosegrass (goosegrass; Preemergence, 16 g ai/ha): 65
- Plant response rating, Goosegrass (goosegrass; Preemergence, 31 g ai/ha): 98
- Bermudagrass plant response rating (bermudagrass; 62 g ai/ha, Preemergence): 80
- Bermudagrass plant response rating (bermudagrass; 125 g ai/ha, preemergence): 100
- Plant response rating, Bermudagrass (bermudagrass; Preemergence, 16 g ai/ha): 0
- Plant response rating, Bermudagrass (bermudagrass; Preemergence, 31 g ai/ha): 30
- Purslane plant response rating (common purslane; 62 g ai/ha, Preemergence): 100
- Purslane plant response rating (common purslane; 125 g ai/ha, preemergence): 100
- Plant response rating, Purslane (common purslane; Preemergence, 16 g ai/ha): 0
- Plant response rating, Purslane (common purslane; Preemergence, 31 g ai/ha): 60
- Crabgrass, Naked plant response rating (naked crabgrass; 62 g ai/ha, Preemergence): 90
- Crabgrass, Naked plant response rating (naked crabgrass; 125 g ai/ha, preemergence): 100
- Plant response rating, Crabgrass, Naked (naked crabgrass; Preemergence, 16 g ai/ha): 65
- Plant response rating, Crabgrass, Naked (naked crabgrass; Preemergence, 31 g ai/ha): 90
- Guineagrass plant response rating (guineagrass; 62 g ai/ha, Preemergence): 100
- Guineagrass plant response rating (guineagrass; 125 g ai/ha, preemergence): 100
- Plant response rating, Guineagrass (guineagrass; Preemergence, 16 g ai/ha): 75
- Plant response rating, Guineagrass (guineagrass; Preemergence, 31 g ai/ha): 100
- Quackgrass plant response rating (quackgrass; 62 g ai/ha, Preemergence): 90
- Quackgrass plant response rating (quackgrass; 125 g ai/ha, preemergence): 95
- Plant response rating, Quackgrass (quackgrass; Preemergence, 16 g ai/ha): 0
- Plant response rating, Quackgrass (quackgrass; Preemergence, 31 g ai/ha): 50
- Morningglory plant response rating (pitted morningglory; 62 g ai/ha, Preemergence): 100
- Morningglory plant response rating (pitted morningglory; 125 g ai/ha, preemergence): 100
- Plant response rating, Morningglory (pitted morningglory; Preemergence, 16 g ai/ha): 30
- Plant response rating, Morningglory (pitted morningglory; Preemergence, 31 g ai/ha): 80
- Kochia plant response rating (kochia; 62 g ai/ha, Preemergence): 100
- Kochia plant response rating (kochia; 125 g ai/ha, preemergence): 100
- Plant response rating, Kochia (kochia; Preemergence, 16 g ai/ha): 0
- Plant response rating, Kochia (kochia; Preemergence, 31 g ai/ha): 50
- Ryegrass, Italian plant response rating (Italian ryegrass; 62 g ai/ha, Preemergence): 100
- Ryegrass, Italian plant response rating (Italian ryegrass; 125 g ai/ha, preemergence): 100
- Plant response rating, Ryegrass, Italian (Italian ryegrass; Preemergence, 16 g ai/ha): 65
- Plant response rating, Ryegrass, Italian (Italian ryegrass; Preemergence, 31 g ai/ha): 98
- Crabgrass, Large plant response rating (large crabgrass; 62 g ai/ha, Preemergence): 100
- Crabgrass, Large plant response rating (large crabgrass; 125 g ai/ha, preemergence): 100
- Plant response rating, Crabgrass, Large (large crabgrass; Preemergence, 16 g ai/ha): 30
- Plant response rating, Crabgrass, Large (large crabgrass; Preemergence, 31 g ai/ha): 80
- Johnsongrass plant response rating (johnsongrass; 62 g ai/ha, Preemergence): 100
- Johnsongrass plant response rating (johnsongrass; 125 g ai/ha, preemergence): 100
- Plant response rating, Johnsongrass (johnsongrass; Preemergence, 16 g ai/ha): 40
- Plant response rating, Johnsongrass (johnsongrass; Preemergence, 31 g ai/ha): 75
